# Test results published in patent US8470828B2, “Anellated pyridine compounds” (Hoffmann-La Roche Inc., priority 2010, dated 2013).
# How the values were obtained:
# human D3 receptor = human D3 receptor (Homo sapiens, UniProt P35462); experiment: Radioligand binding to cloned human D3 receptor expressed in HEK-293 EBNA cells ([3H]-spiperone)
# human 5-HT2A receptor = human 5-HT2A receptor (Homo sapiens, UniProt P28223); experiment: Radioligand binding to cloned human 5-HT2A receptor expressed in HEK-293 EBNA cells ([3H]-ketanserin)
# Procedure: (§1) HEK293 EBNA cells were transiently transfected with expression plasmids encoding for the human D2 or D3 or for the human 5-HT2A receptor, respectively. The cells were harvested 48 h post-transfection, washed three times with cold PBS and stored at −80° C. prior to use. The pellet was suspended in cold 50 mM Tris-HCl buffer comprising 10 mM EDTA (pH 7.4) and was homogenized with a Polytron (Kinematica A G, Basel, Switzerland) for 20-30 sec at 12.000 rpm. After centrifugation at 48.000×g for 30 min at 4° C., the pellet was resuspended in cold 10 mM Tris-HCl buffer comprising 0.1 mM EDTA (pH 7.4), homogenized, and centrifuged as above. This pellet was further resuspended in a smaller volume of ice cold 10 mM Tris-HCl buffer comprising 0.1 mM EDTA (pH 7.4) and homogenized with a Polytron for 20-30 sec at 12.000 rpm. The protein content of this homogenate was determined with the Bio-Rad (Bradford) Protein Assay (Biorad Laboratories GmbH, München, Germany) according to the instructions of the manufacturer using gamma globulin as the standard. This homogenate was stored at −80° C. in aliquots and thawed immediately prior to use.
# (§2) Aliquots of membrane preparations were thawed at RT, resupended in assay buffer (D2, D3: 50 mM Tris-HCl, 120 mM NaCl, 5 mM MgCl2, 1 mM EDTA, 5 mM KCl, 1.5 mM CaCl2, pH=7.4; 5-HT2A: 50 mM Tris-HCl, 10 mM MgCl2, 1 mM EGTA, pH=7.4), homogenized with a Polytron for 20-30 sec at 12.000 rpm and adjusted to a final concentration of approximately 7.5 μg protein/well (D2, D3) and 15 μg protein/well (5-HT2A), respectively.
# (§3) The binding affinity (Ki) of the compounds was determined using radioligand binding. Membranes were incubated in a total volume of 200 μl with a fixed concentration of radioligand (final concentration approximately 0.7 nM [^3H]-spiperone for D2, 0.5 nM [^3H]-spiperone for D3, and 1.1 nM [^3H]-ketanserin for 5-HT2A) and ten concentrations of test compound in ranging between 10 μM-0.1 nM for 1 h at RT. At the end of the incubation, the reaction mixtures were filtered on to unifilter 96-well white microplates with bonded GF/C filters (Packard BioScience, Zürich, Switzerland; preincubated for 1 h in 0.1% polyethylenimine (PEI) in assay buffer) with a Filtermate 196 harvester (Packard BioScience) and washed 3 times with cold assay buffer. The nonspecific binding was determined with equally composed reaction mixtures in the presence of 10 μM unlabelled spiperone. Per well 45 μl of Microscint 40 (Perkin Elmer, Schwerzenbach, Switzerland) was added, plates for sealed, shaken for 20 min and counted for 3 min on a Topcount Microplate Scintillation Counter (Can berra Packard S A, Zürich, Switzerland) with quenching correction.
# (§4) The CPM value for each duplicate of a concentration of competing compound was averaged (y1), then the % specific binding was calculated according to the equation (((y1−non-specific)/(total binding−non-specific))×100). Graphs were plotted with the % specific binding using XLfit, a curve fitting program that iteratively plots the data using Levenberg-Marquardt algorithm. The single site competition analysis equation used was y=A+((B−A)/(1+((x/C)D))), where y is the % specific binding, A is the minimum y, B is the maximum y, C is the IC50, x is the log 10 of the concentration of the competing compound and D is the slope of the curve (the Hill Coefficient). […] The affinity constant (Ki) was calculated using the Cheng-Prusoff equation Ki=(IC50/1+([L]/Kd), where [L] is the concentration of radioligand and Kd is the dissociation constant of the radioligand at the receptor as determined by the saturation isotherm.
# human D2 receptor = target: T1, human D2 receptor (Homo sapiens, UniProt P14416); experiment: Radioligand binding to cloned human D2 receptor expressed in HEK-293 EBNA cells ([3H]-spiperone); conditions: HEK293 EBNA cell membranes, approximately 0.7 nM [3H]-spiperone, 1 h at RT
# T1 construct: expressed in transfected cells; host or cells: HEK293 EBNA cells, transient transfection; membrane preparation
# T1 sequence (P14416 whole entry): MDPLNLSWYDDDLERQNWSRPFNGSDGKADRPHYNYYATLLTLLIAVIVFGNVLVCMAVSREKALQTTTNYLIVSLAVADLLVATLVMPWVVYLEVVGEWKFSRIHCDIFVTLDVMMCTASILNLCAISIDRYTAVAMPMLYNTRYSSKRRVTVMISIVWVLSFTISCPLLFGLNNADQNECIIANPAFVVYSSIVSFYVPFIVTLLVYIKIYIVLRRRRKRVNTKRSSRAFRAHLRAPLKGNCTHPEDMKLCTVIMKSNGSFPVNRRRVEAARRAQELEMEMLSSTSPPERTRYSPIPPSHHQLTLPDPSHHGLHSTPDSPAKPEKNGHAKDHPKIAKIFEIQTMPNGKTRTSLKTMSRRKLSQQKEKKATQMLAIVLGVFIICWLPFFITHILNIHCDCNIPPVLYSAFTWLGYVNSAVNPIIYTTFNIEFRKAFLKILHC
# Procedure: as §1, §2, §3, §4
# human 5-HT2A receptor, sequence (P28223 whole entry): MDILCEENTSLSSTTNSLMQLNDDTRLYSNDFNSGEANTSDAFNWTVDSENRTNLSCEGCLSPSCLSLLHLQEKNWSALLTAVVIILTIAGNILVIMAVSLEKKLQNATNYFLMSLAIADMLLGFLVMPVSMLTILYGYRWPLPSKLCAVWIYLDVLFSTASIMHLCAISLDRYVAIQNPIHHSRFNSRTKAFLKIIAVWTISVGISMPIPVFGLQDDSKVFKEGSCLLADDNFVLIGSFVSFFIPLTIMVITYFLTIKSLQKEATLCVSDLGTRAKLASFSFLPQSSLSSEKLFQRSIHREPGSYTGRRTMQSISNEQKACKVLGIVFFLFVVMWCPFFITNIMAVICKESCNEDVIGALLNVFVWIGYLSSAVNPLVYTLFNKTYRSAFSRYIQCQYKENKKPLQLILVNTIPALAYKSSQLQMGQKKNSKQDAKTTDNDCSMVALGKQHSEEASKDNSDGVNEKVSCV
# human D3 receptor, sequence (P35462 whole entry): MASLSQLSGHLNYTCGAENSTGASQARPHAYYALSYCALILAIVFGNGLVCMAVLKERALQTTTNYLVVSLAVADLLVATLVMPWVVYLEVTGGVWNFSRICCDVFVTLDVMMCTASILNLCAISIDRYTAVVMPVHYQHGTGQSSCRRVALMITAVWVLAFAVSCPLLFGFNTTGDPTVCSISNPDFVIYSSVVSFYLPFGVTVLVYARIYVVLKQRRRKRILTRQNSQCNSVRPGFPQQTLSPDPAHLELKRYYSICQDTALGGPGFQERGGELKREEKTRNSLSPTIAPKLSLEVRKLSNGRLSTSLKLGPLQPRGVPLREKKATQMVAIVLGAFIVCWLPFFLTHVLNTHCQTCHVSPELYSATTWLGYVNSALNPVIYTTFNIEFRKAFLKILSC
SMILES,Ki (human D3 receptor) [µM],melting point [°C],Ki (human 5-HT2A receptor) [µM],Ki (human D2 receptor) [µM],D2 Ki (human D2 receptor)
"CS(=O)(=O)CC(=O)N[C@H]1CC[C@H](CCN2CCN(c3nccc4c3OCC4)CC2)CC1 [Example 21, trans-N-(4-{2-[4-(2,3-Dihydro-furo[2,3-c]pyridin-7-yl)-piperazin-1-yl]-ethyl}-cyclohexyl)-2-methanesulfonyl-acetamide]",0.00436,187,0.0521,0.68,
"CC(C)CC(=O)N[C@H]1CC[C@H](CCN2CCN(c3nccc4c3OCC4)CC2)CC1 [Example 24, trans-N-(4-{2-[4-(2,3-Dihydro-furo[2,3-c]pyridin-7-yl)-piperazin-1-yl]-ethyl}-cyclohexyl)-3-methyl-butyramide]",0.00319,187,0.0449,0.35,
"O=C(CC1CCC1)N[C@H]1CC[C@H](CCN2CCN(c3nccc4c3OCC4)CC2)CC1 [Example 25, trans-2-Cyclobutyl-N-(4-{2-[4-(2,3-dihydro-furo[2,3-c]pyridin-7-yl)-piperazin-1-yl]-ethyl}-cyclohexyl)-acetamide]",0.00578,147.5,0.0369,0.531,
"CS(=O)(=O)N[C@H]1CC[C@H](CCN2CCN(c3nccc4c3OCC4)CC2)CC1 [Example 26, trans-N-(4-{2-[4-(2,3-Dihydro-furo[2,3-c]pyridin-7-yl)-piperazin-1-yl]-ethyl}-cyclohexyl)-methanesulfonamide]",0.0139,220,0.0708,0.481,
"CCS(=O)(=O)N[C@H]1CC[C@H](CCN2CCN(c3nccc4c3OCC4)CC2)CC1 [Example 27, Ethanesulfonic acid trans-(4-{2-[4-(2,3-dihydro-furo[2,3-c]pyridin-7-yl)-piperazin-1-yl]-ethyl}-cyclohexyl)-amide]",0.0113,190,0.0605,0.367,
"O=C(CO)N[C@H]1CC[C@H](CCN2CCN(c3nccc4c3OCC4)CC2)CC1 [Example 28, trans-N-(4-{2-[4-(2,3-Dihydro-furo[2,3-c]pyridin-7-yl)-piperazin-1-yl]-ethyl}-cyclohexyl)-2-hydroxy-acetamide]",0.00776,246,0.0313,0.425,
"O=C(CC1CC1)N[C@H]1CC[C@H](CCN2CCN(c3nccc4c3OCC4)CC2)CC1 [Example 30, trans-2-Cyclopropyl-N-(4-{2-[4-(2,3-dihydro-furo[2,3-c]pyridin-7-yl)-piperazin-1-yl]-ethyl}-cyclohexyl)-acetamide]",0.00334,197.5,0.0333,0.184,
"N#CCC(=O)N[C@H]1CC[C@H](CCN2CCN(c3nccc4c3OCC4)CC2)CC1 [Example 31, trans-2-Cyano-N-(4-{2-[4-(2,3-dihydro-furo[2,3-c]pyridin-7-yl)-piperazin-1-yl]-ethyl}-cyclohexyl)-acetamide]",0.00219,215.5,0.0297,0.137,
"O=C(CC(F)(F)F)N[C@H]1CC[C@H](CCN2CCN(c3nccc4c3OCC4)CC2)CC1 [Example 33, trans-N-(4-{2-[4-(2,3-Dihydro-furo[2,3-c]pyridin-7-yl)-piperazin-1-yl]-ethyl}-cyclohexyl)-3,3,3-trifluoro-propionamide]",0.00429,216.5,0.0442,0.276,
"O=C(C[C@@H]1COCCO1)N[C@H]1CC[C@H](CCN2CCN(c3nccc4c3OCC4)CC2)CC1 [Example 35, trans-N-(4-{2-[4-(2,3-Dihydro-furo[2,3-c]pyridin-7-yl)-piperazin-1-yl]-ethyl}-cyclohexyl)-2-(R)-[1,4]dioxan-2-yl-acetamide]",0.00828,181,0.0361,0.384,
"O=C(N[C@H]1CC[C@H](CCN2CCN(c3nccc4c3OCC4)CC2)CC1)C1CC1 [Example 36, trans-Cyclopropanecarboxylic acid (4-{2-[4-(2,3-dihydro-furo[2,3-c]pyridin-7-yl)-piperazin-1-yl]-ethyl}-cyclohexyl)-amide]",0.00749,193,0.0323,0.102,
"O=C(N[C@H]1CC[C@H](CCN2CCN(c3nccc4c3OCC4)CC2)CC1)c1ccc(N2CCOCC2)cc1 [Example 38, trans-N-(4-{2-[4-(2,3-Dihydro-furo[2,3-c]pyridin-7-yl)-piperazin-1-yl]-ethyl}-cyclohexyl)-4-morpholin-4-yl-benzamide]",0.0155,241.5,0.0166,2.28,
"O=C(N[C@H]1CC[C@H](CCN2CCN(c3nccc4c3OCC4)CC2)CC1)c1ccnc2ccccc12 [Example 39, Quinoline-4-carboxylic acid trans-(4-{2-[4-(2,3-dihydro-furo[2,3-c]pyridin-7-yl)-piperazin-1-yl]-ethyl}-cyclohexyl)-amide]",0.00622,222,0.0219,,inactive
"Cc1cc(CC(=O)N[C@H]2CC[C@H](CCN3CCN(c4nccc5c4OCC5)CC3)CC2)on1 [Example 43, trans-N-(4-{2-[4-(2,3-Dihydro-furo[2,3-c]pyridin-7-yl)-piperazin-1-yl]-ethyl}-cyclohexyl)-2-(3-methyl-isoxazol-5-yl)-acetamide]",0.00268,222.5,0.0412,3.71,
"O=C(N[C@H]1CC[C@H](CCN2CCN(c3nccc4c3OCC4)CC2)CC1)C1(O)CC1 [Example 44, 1-Hydroxy-cyclopropanecarboxylic acid trans-(4-{2-[4-(2,3-dihydro-furo[2,3-c]pyridin-7-yl)-piperazin-1-yl]-ethyl}-cyclohexyl)-amide]",0.0168,248.5,0.00991,0.793,
"CCCC(=O)N[C@H]1CC[C@H](CCN2CCN(c3nccc4c3OCC4)CC2)CC1 [Example 45, trans-N-(4-{2-[4-(2,3-Dihydro-furo[2,3-c]pyridin-7-yl)-piperazin-1-yl]-ethyl}-cyclohexyl)-butyramide]",0.0101,183,0.0501,0.731,

# The remaining molecules from weak to strong by Ki (human D3 receptor), led by results:
Ki (human D3 receptor) [µM],melting point [°C],Ki (human 5-HT2A receptor) [µM],Ki (human D2 receptor) [µM],D2 Ki (human D2 receptor),SMILES
0.0334,177.5,0.0638,2.35,,"CN(C)C(=O)CCC(=O)N[C@H]1CC[C@H](CCN2CCN(c3nccc4c3OCC4)CC2)CC1 [Example 41, trans-N-(4-{2-[4-(2,3-Dihydro-furo[2,3-c]pyridin-7-yl)-piperazin-1-yl]-ethyl}-cyclohexyl)-N′,N′-dimethyl-succinamide]"
0.0155,175,0.0444,0.879,,"CC(C)CCC(=O)N[C@H]1CC[C@H](CCN2CCN(c3nccc4c3OCC4)CC2)CC1 [Example 42, trans-4-Methyl-pentanoic acid (4-{2-[4-(2,3-dihydro-furo[2,3-c]pyridin-7-yl)-piperazin-1-yl]-ethyl}-cyclohexyl)-amide]"
0.0128,126.5,0.0329,1.28,,"COCC(=O)N[C@H]1CC[C@H](CCN2CCN(c3nccc4c3OCC4)CC2)CC1 [Example 20, trans-N-(4-{2-[4-(2,3-Dihydro-furo[2,3-c]pyridin-7-yl)-piperazin-1-yl]-ethyl}-cyclohexyl)-2-methoxy-acetamide]"
0.0106,181,0.0189,0.822,,"O=C(C[C@H]1COCCO1)N[C@H]1CC[C@H](CCN2CCN(c3nccc4c3OCC4)CC2)CC1 [Example 32, trans-N-(4-{2-[4-(2,3-Dihydro-furo[2,3-c]pyridin-7-yl)-piperazin-1-yl]-ethyl}-cyclohexyl)-2-(S)[1,4]dioxan-2-yl-acetamide]"
0.00893,235.5,0.0221,1.65,,"O=C(N[C@H]1CC[C@H](CCN2CCN(c3nccc4c3OCC4)CC2)CC1)c1ccc(F)cc1 [Example 40, trans-N-(4-{2-[4-(2,3-Dihydro-furo[2,3-c]pyridin-7-yl)-piperazin-1-yl]-ethyl}-cyclohexyl)-4-fluoro-benzamide]"
0.00743,195,0.028,0.172,,"O=C(N[C@H]1CC[C@H](CCN2CCN(c3nccc4c3OCC4)CC2)CC1)C1CCOC1 (stereo partly drawn) [Example 34, Tetrahydro-furan-3-carboxylic acid trans-(4-{2-[4-(2,3-dihydro-furo[2,3-c]pyridin-7-yl)-piperazin-1-yl]-ethyl}-cyclohexyl)-amide]"
0.00725,203.5,0.0348,0.265,,"CC(C)C(=O)N[C@H]1CC[C@H](CCN2CCN(c3nccc4c3OCC4)CC2)CC1 [Example 37, trans-N-(4-{2-[4-(2,3-Dihydro-furo[2,3-c]pyridin-7-yl)-piperazin-1-yl]-ethyl}-cyclohexyl)-isobutyramide]"
0.00589,186,0.0303,0.276,,"O=C(N[C@H]1CC[C@H](CCN2CCN(c3nccc4c3OCC4)CC2)CC1)C1CCC1 [Example 23, Cyclobutanecarboxylic acid trans-(4-{2-[4-(2,3-dihydro-furo[2,3-c]pyridin-7-yl)-piperazin-1-yl]-ethyl}-cyclohexyl)-amide]"
0.00334,221,0.0147,0.247,,"O=C(N[C@H]1CC[C@H](CCN2CCN(c3nccc4c3OCC4)CC2)CC1)c1ccccc1 [Example 22, trans-N-(4-{2-[4-(2,3-Dihydro-furo[2,3-c]pyridin-7-yl)-piperazin-1-yl]-ethyl}-cyclohexyl)-benzamide]"
